Laboratory results as given in publication PMC12682947, “Identification of New KCNT1‐Epilepsy Drugs by In Silico, Cell, and Drosophila Modeling” (Annals of Neurology, 2025).
Where a name gives a salt, the structure may show the parent alone.

Tested on: Drosophila mutant KCNT1 lines (G288S, R398Q, R928C)
Assay: Bang-sensitive behavioral seizure assay, statements for all three Drosophila mutant KCNT1 lines
Assay type: in vivo, Drosophila melanogaster
Conditions: for effect on seizure activity (in words): drug in food, 1 nM to 1 μM, each of the three mutant lines
Text: The Drosophila melanogaster lines carrying the WT human KCNT1 transgene (NM_020822_3) or KCNT1 mutant G288S, R398Q or R928C transgene placed downstream of the yeast UAS promoter, have been described previously.[11] WT or mutant human UAS‐KCNT1 flies were crossed to flies expressing the GAL4 transcriptional activator under the control of the GAD1 promoter (GABAergic driver, Bloomington stock number 51630 P2) to drive expression of KCNT1 in GABAergic neurons, involved in neuronal inhibition.[11]
The bang‐sensitive behavioral assay (also known as the banging assay) was used to test for the presence of a seizure phenotype in Drosophila.[11], [30] Experiments were performed and scored, as previously described,[11] with a minimum of 50 Drosophila tested for each genotype and drug concentration.
Four drugs were selected for in vivo analysis to determine their effects on the seizure phenotypes in transgenic Drosophila lines with human mutant KCNT1 channels. Bepridil, a nonselective KCNT1 inhibitor was included for comparison. Drosophila food with and without drugs was prepared as previously described.[11] All chemicals were obtained from Sigma‐Aldrich (Gillingham, UK) apart from antrafenine hydrochloride (Toronto Research Chemicals, Canada) and regorafenib (USP, Germany).
Drosophila crosses were set up, and the resulting embryos were collected, as previously described.[11] A range of concentrations of each drug dissolved in Drosophila food, between 0.001 μM and 1 μM, were used in the experiments. Multiple replicates were performed for each dosage of the drugs and controls. Controls were vehicle controlled (VC), which was the normal food with just the solvent ethanol present (1 μl/1 ml) in the Drosophila food, and normal food (NF) control where no drug or solvent (ethanol) was added in the Drosophila food.
In all experiments, experimenters were not blinded to variants or treatments, nor were samples randomly assigned to groups. Sample sizes were not calculated in advance and no data were excluded from the analysis. Data were analyzed using GraphPad Prism 9 software (San Diego, CA, USA). All values are reported as mean ± standard error of the mean (SEM). All data passed normality and lognormality Shapiro–Wilk tests, determined by GraphPad Prism 9. In the experiments analyzing the effects of drugs in Drosophila, statistical significance of differences between groups was determined using Brown‐Forsythe and Welch's analysis of variance (ANOVA) tests (Supplementary Table S3), assuming non‐equal SDs, followed by Dunnett's multiple comparisons tests (GraphPad Prism 9). The results of the Dunnett's multiple comparisons tests are shown in Supplementary Table S4, where “N” represents independent trials using independent fly crosses, with the total number of flies for each condition shown in brackets.

Question: Which “effect on seizure activity (in words)” value does the source give for O=C(OCCN1CCN(c2cccc(C(F)(F)F)c2)CC1)c1ccccc1Nc1ccnc2cc(C(F)(F)F)ccc12 [antrafenine] here?
Answer: significantly reduce the seizure activity

Question: Which results are given for CC(C)c1c(C(=O)Nc2ccccc2)c(-c2ccccc2)c(-c2ccc(F)cc2)n1CC[C@@H](O)C[C@@H](O)CC(=O)O [atorvastatin]?
Answer: viability of adult flies (1 μM in food): reduced viability; effect on seizure activity (in words): did not show a significant effect

Question: How did the “effect on seizure activity (in words)” value turn out when Cc1c(O)cccc1C(=O)N[C@@H](CSc1ccccc1)[C@H](O)CN1C[C@H]2CCCC[C@H]2C[C@H]1C(=O)NC(C)(C)C [nelfinavir mesylate] was run?
Answer: significantly reduce the seizure activity

Question: For CNC(=O)c1cc(Oc2ccc(NC(=O)Nc3ccc(Cl)c(C(F)(F)F)c3)c(F)c2)ccn1 [regorafenib], which “effect on seizure activity (in words)” value is on record?
Answer: did not show a significant effect
